Assay [1] relates to 4T1 breast cancer brain metastases. Description: Orthotopic breast cancer brain metastases (BCBM) model. The class given is in vivo, BALB/C mice. The note with it: compared to the control group. Here is the method:
Breast Cancer Brain Metastases (BCBM). To generate primary breast rumors prior to BCBM, 4T1 cells (3×10^5 cells/100 μl) were inoculated orthotopically into the mammary fat pad of immunocompetent BALB/C mice. Seven days later, primary lesions were resected. One week post primary tumor resection, 4T1 cells (2×10^4 cells/2 μl) were intracranially inoculated stereotactically to the striatum of the same mice (previously bearing the primary tumors). […] Mice body weight change was monitored three times a week, and tumor growth was followed using 4.7T/1H magnetic resonance imaging (MRI, MR Solutions, UK). PBMCs activation.

In a further assay the test system is MDA-MB-231 spheroids. Nature of the assay: Breast cancer 3D tumor spheroids. The note with it: BC cells alone or with astrocytes, microglia and PBMCs.
The test system of a further assay is WM115 melanoma cells. Description: Wound healing migration assay. The class given is cell-based, human. The note with it: vs cells in astrocytes SFM. Here is the method:
(§1) Wound Healing Assay. To study the role of MCP-1 in mediating melanoma cells migration, (WM115 and 131/4-5B1 cells) (5×10^4 cells/well) were plated onto 96-well ImageLock tissue culture plate and allowed to grow until confluence. Next, a wound was created in each well using a 96-pin wound-making tool (WoundMaker, Essen BioScience, Sartorius, USA), and dislodged cells were washed with PBS. Melanoma cells were treated for 48 h with astrocytes CM, human astrocytes CM treated with siRNA:PEI polyplexes (500 nM siRNA targeting MCP-1 or scramble siRNA), astrocytes CM supplemented with 10 µg/mL anti-MCP-1 neutralizing antibody, astrocytes SFM supplemented with 1 μg/mL rh/mMCP-1. To monitor wound closure, the plate was placed in the IncuCyte™ ZOOM Live Cell Imaging system (Essen Bioscience, Sartorius, USA) and phase contrast images were taken every 2 h intervals over a course of 48 h using 10× objective. Results were calculated by the IncuCyte™ Software and presented as relative wound density (relative to the background density of the wound at time 0).

The next assay deals with 131/4-5B1 melanoma cells. Nature of the assay: Wound healing migration assay. The class given is cell-based, human. Particulars: vs cells in astrocytes SFM. As for the experimental part: as §1
For assay [2], the system named is melanoma cells (D4M.3A, B16-F10, A375, 131/4-5B1 and WM115). Nature of the assay: Transwell migration of melanoma cells towards bindarit-treated astrocytes. The note with it: addition of rh-MCP-1; p=0.006 (astrocytes), p=0.115 (CM).
Protocol: Transwell® Migration Assay. […] In order to assess melanoma migration in co-culture with astrocytes, human astrocytes (1×10^5 cells/well) or murine astrocytes (2×10^5 cells/well) were seeded in the lower chambers of the Transwell® inserts. […] All migrated cells were then fixed and stained (Hema 3 Stain System; Fisher Diagnostics, fixed and stained (Hema 3 Stain System; Fisher Diagnostics, USA). The stained migrated cells were imaged using EVOS FL Auto microscope (Life Technologies, USA) using 10× objective, brightfield illumination.
The subject of the next assay is MDA-MB-231 cells. Nature of the assay: Breast cancer Transwell migration. Particulars: vs control.

The record followed here is patent US20250179166A1, “TREATMENT OF BRAIN METASTASIS” (Ramot at Tel-Aviv University Ltd., priority 2022, published 2025).

Protocol for MDA-MB-231 spheroids: Multicellular tumor spheroids (MCTS). MCTS were prepared using the hanging-drop method as previously shown (24). […] The sprouting of MCTS was analyzed using ImageJ 1.52v software, and the results were presented as total area covered or % of total area covered per spheroid (pixel density) per well.
The plates were incubated for 7 days at 37° C. in 5% CO2 and cell fluorescence was followed and quantified by Cytation™ C10.

For the compound `COc1ccc(C2CC(c3c(O)cc(C)oc3=O)=NCCS2)c(OC)c1` (stereo not drawn) [SELPi, 3-[7-(2,4-Dimethoxyphenyl)-2,3,6,7-tetrahydro-1,4-thiazepin-5-yl]-4-hydroxy-6-methyl-2H-pyran-2-one], the “systemic disease relapse (primary tumor recurrence or extracranial metastases)” value in assay [1] was “did not show any improvement in relapse”. Moreover, the spheroid size entry in the assay with MDA-MB-231 spheroids is listed as “significant decrease”.
With “rh-MCP-1: Recombinant human/murine MCP-1”, the “increase of melanoma cell migration (wound healing)” value amounted to 5% in the assay on WM115 melanoma cells and 27% in the assay with 131/4-5B1 melanoma cells. In addition, in assay [2], the “rescue of melanoma cell migration in presence of bindarit-treated astrocytes” value is given as “rescued the inhibition of melanoma cell migration”. Further, the “MDA-MB-231 migration towards MCP-1 recombinant protein” value in the assay with MDA-MB-231 cells is on record as “migrated more”.
